Test results published in US9085523B2, “Compound for treating cartilage disorders” (ONO PHARMACEUTICAL CO., LTD., priority 2011, dated 2015).
Values belong to the compound of their own block, whether it stands above or below them.

Experiments:
[1] = test system: blood pressure and heart rate of normal rabbit; assay: Measurement of blood pressure and heart rate of normal rabbit; format: in vivo; settings: for effect on circulatory system: at the dose exhibiting efficacy on the knee cartilage defect model, comparison of blood concentrations of Compound A
Description: Compound A acts on circulatory system and affects on blood pressure and heart rate.
Blood pressure and heart rate were measured by the following method using female Japanese white domestic rabbit. An animal was retained in dorsal position on an operation table on a measurement day. After the hair of right femur area was removed, a local anesthetic was given by administering an appropriate amount of lidocaine injection. The skin and muscle was incised to expose femur artery and vein, and a catheter (manufactured by Atom Medical Corporation) filled with saline containing heparin (about 10 units/mL) beforehand was placed in the right femur artery.
After retaining the rabbit in a rabbit blood sampling box (manufactured by NATSUME SEISAKUSHO CO LTD.), the catheter was connected to a pressure transducer (DX-100: manufactured by NIHON KOHDEN CORPORATION) to measure blood pressure with a strain pressure amplifier (AP-641G: manufactured by NIHON KOHDEN CORPORATION) and heart rate with an instantaneous heart rate counter (AT-601G: manufactured by NIHON KOHDEN CORPORATION). Blood pressure and waveform of heartbeat were recorded by a recorder (WR3701: manufactured by Graphtech Corporation). Measurement was conducted under awake condition after confirming blood pressure and heart rate became stable.
(§1) Compound A was administered cumulatively through right auricular vein with a syringe pump (manufactured by TERUMO CORPORATION) at 0 (medium: saline), 100, 300 and 1000 ng/kg/min (administration volume: 1 mL/kg/h). Each dose was administered for more than 60 minutes and blood was collected from left auricular vein 60 minutes after the administration started. Blood was collected with a 1 mL syringe with a needle of […] treated with heparin (about 10 units/mL) beforehand. The collected blood was centrifuged at 4° C. 13,500 g for 5 minutes and the obtained supernatant (plasma) was stored at […] to be provided for the measurement of blood concentration of Compound A.
Increase or decrease ratio of mean blood pressure and heart rate at 5, 10, 15, 20, 30, 40, 50 and 60 minutes after the administration started were calculated based on the values of pre-administration of each subject. Maximum change of blood pressure and heart rate between before and after the administration of Test Compounds was evaluated.

[2] = In vitro hydrolysis test in rabbit plasma (release of Compound A, LC/MS/MS); format: in vitro ADME; settings: 37° C.
Description: The particles were retained inside articular cavity after intra-articular administration. The sustained period of active form inside articular cavity changes depending on hydrolysis period of a test compound. Therefore, the hydrolysis period of a test compound was evaluated and set as an indicator of sustained release of the active form.
Various test compounds were dissolved in dimethylsulfoxide, so that the concentration of the solution calculated in Compound A becomes 0.5 mg/mL. The solution (10 μL) was added to 0.5 mL of rabbit plasma and incubated at 37° C. in water bath. 50 μL of the solution was sampled 0, 1, 3, 8, 24, 30, 48 and 72 minutes after the incubation and the concentration of Compound A in sample was determined.
After 50 μL of the solution was sampled in a polyethylene tube, 10 μL of deuterium-labeled Compound A as internal standard and 2 mL of acetonitrile were added, followed by stirring. After centrifugation, 100 μL of the supernatant was sampled in a polyethylene tube and 900 μL of acetonitrile was added thereto, followed by stirring. After filtration, the supernatant was measured by LC/MS/MS and the 50% hydrolysis time was calculated.

[3] = test system: knee cartilage defect model; assay: Evaluation of cartilage tissue score in knee cartilage defect model; format: in vivo; settings: rabbit, intra-articular, bi-weekly, 6 times; vs vehicle, Steel test
Description: Knee cartilage defect model was prepared by the following method. Female Japanese white domestic rabbit (2.5-3.5 kg) was anesthetized by the administration of sodium pentobarbital (30 mg/kg) through ear vein. The hair around knee articulations of both hind legs was removed and disinfected with iodine tincture. After the incision of the skin of an inert right hind leg, the boundary between patella ligament and articular capsule was incised in dorsal position. Patella was dislocated outward to expose trochlea femoris largely and medial condyle of femur was drilled with a dental drill to prepare small hole (diameter: 4 mm, depth: about 2 mm). The surgical incision was sutured and the surgical site was disinfected with iodine tincture. Femur of a left knee or both knees of pseudo-operation group was only exposed by the same operation without preparing small hole. To avoid infection disease, 100,000 units of benzylpenicilline procaine/125 mg titers of dihydrostreptomycin sulfate/I mg of procaine hydrochloride per rabbit was administered in gluteal muscle. A test compound (12-200 μg/knee, calculated in Compound A which is active form of test compounds) and its medium (5% glucose solution containing 0.05% Tween 80) were administered inside articular cavity of right knee of rabbit at bi-weekly intervals, 6 times for total, and from a week after operation. […]

[4] = Blood concentration of Compound A during continuous intravenous administration to normal rabbit; format: in vivo; settings: female, Japanese white, plasma, 60 minutes after administration started
Description: as §1

[5] = Particle forming: mean particle diameter (Dv) and particle distribution (PDI) of suspensions by laser diffraction; format: physicochemical; settings: 5% glucose solution containing 0.05% Tween 80
Description: In the specification, the mean particle diameter means the mean particle diameter measured by a laser diffraction/scattering method. In the specification, the mean particle diameter is measured by a laser diffraction grain size distribution measuring apparatus (SALD-2100: manufactured by Shimadzu Corp.). In terms of mean particle diameter, various values such as volume mean diameter, surface mean diameter, median diameter and the like are used as an indicator of mean particle diameter, and in the specification, volume mean diameter (Dv) is used as a mean particle diameter.
In addition, a particle to be injected inside articular cavity is preferably a particle with a mean particle diameter with less variance and uniform size. The variance of mean particle diameter can be evaluated by measuring particle size distribution and the particle size distribution can be measured by a laser diffraction grain size distribution measuring apparatus as well as a mean particle diameter. […] In the description, PDI value and Dn was measured by a laser diffraction grain size distribution measuring apparatus (SALD-2100: manufactured by Shimadzu Corp.).
To distilled water, Compound 4-11 dissolved in ethanol was added slowly, 5% glucose solution and 5% glucose solution containing 0.05% Tween 80 with stirring. […] The quantity of each component is as follows, […]

[6] = rabbit, intravenous, 1000 ng/kg/min

Time of 50% hydrolysis [2]: 26.2 days
Structure (SMILES): CCCCCCCCCCCCCCCC#CCOC(=O)CCC/C=C\C[C@@H]1[C@@H](/C=C/C[C@H](O)C2(CC)CCC2)[C@H](O)C[C@H]1Cl [Compound 19, 2-octadecyn-1-yl(5Z)-7-{(1R,2R,3R,5R)-5-chloro-2-[(1E,4S)-4-(1-ethylcyclobutyl), 4-hydroxy-1-buten-1-yl]-3-hydroxycyclopentyl}-5-heptenoate]
effect on circulatory system [1]: hardly affects on circulatory system | cartilage tissue score [3]: significantly improved

concentration at 60 min ([4]; continuous intravenous 100 ng/kg/min): 2 ng/mL | concentration at 60 min ([4]; continuous intravenous 300 ng/kg/min): 5.9 ng/mL | concentration at 60 min ([4]; continuous intravenous 1000 ng/kg/min): 24.3 ng/mL
Structure (SMILES): CCC(CCCCl)[C@@H](O)C/C=C/[C@@H]1[C@@H](C/C=C\CCCC(=O)O)[C@H](Cl)C[C@H]1O (stereo partly drawn) [Compound A, (5Z)-7-{(1R,2R,3R,5R)-5-chloro-2-[(1E,4S)-4-(1-ethylchlorobutyl)-4-hydroxy-1-butenyl]-3-hydroxycyclopentyl}-5-heptenoic acid]
blood concentration that does not affect blood pressure ([1]; rabbit): ≤ 5.9 ng/mL | blood concentration that does not affect heart rate ([1]; rabbit): ≤ 2.0 ng/mL | increase of heart rate at maximum ([1]; rabbit, intravenous, 100 ng/kg/min): about 5% | increase of heart rate ([1]; rabbit, intravenous, 300 ng/kg/min): 15% | decrease of blood pressure [1, 6]: 16 mmHg | increase of heart rate [1, 6]: 20% | decrease of blood pressure at maximum ([1]; rabbit, intravenous, 100 and 300 ng/kg/min): ≤ 5 mmHg

Time of 50% hydrolysis [2]: 7.3 days
Structure (SMILES): CCCCCCCCCCCCCCCOc1ccc(C(=O)OCCOC(=O)CCC/C=C\C[C@@H]2[C@@H](/C=C/C[C@H](O)C3(CC)CCC3)[C@H](O)C[C@H]2Cl)cc1 [Compound 4-11, 2-{[(5Z)-7-{(1R,2R,3R,5R)-5-chloro-2-[(1E,4S)-4-(1-ethylcyclobutyl)-4-hydroxy-1-buten-1-yl]-3-hydroxycyclopentyl}-5-heptenoyl]oxy}ethyl 4-(pentadecyloxy)benzoate]
effect on circulatory system [1]: hardly affects on circulatory system

Time of 50% hydrolysis [2]: 7.8 days
Structure (SMILES): CCCCCCCCCCCCCCCCc1ccc(C(=O)OCCCOC(=O)CCC/C=C\C[C@@H]2[C@@H](/C=C/C[C@H](O)C3(CC)CCC3)[C@H](O)C[C@H]2Cl)cc1 [Compound 6-4, 3-{[(5Z)-7-{(1R,2R,3R,5R)-5-chloro-2-[(1E,4S)-4-(1-ethylcyclobutyl)-4-hydroxy-1-buten-1-yl]-3-hydroxycyclopentyl}-5-heptenoyl]oxy}propyl 4-hexadecylbenzoate]

particle forming in dispersion medium [5]: did not form a particle
Structure (SMILES): CCCCCCCCCCCCCCCCCC[N+](C)(C)CCOC(=O)CCC/C=C\C[C@@H]1[C@@H](/C=C/C[C@H](O)C2(CC)CCC2)[C@H](O)C[C@H]1Cl.[Br-] [Reference Example 3, N-(2-{[(5Z)-7-{(1R,2R,3R,5R)-5-chloro-2-[(1E,4S)-4-(1-ethylcyclobutyl)-4-hydroxy-1-buten-1-yl]-3-hydroxycyclopentyl}-5-heptenoyl]oxy}ethyl)-N,N-di methyl-octadecyl ammonium bromide]

Time of 50% hydrolysis [2]: 10.6 days
Structure (SMILES): CCCCCCCCCCCCCCCOc1cccc(C(=O)OCCOC(=O)CCC/C=C\C[C@@H]2[C@@H](/C=C/C[C@H](O)C3(CC)CCC3)[C@H](O)C[C@H]2Cl)c1 [Compound 4-1, 2-{[(5Z)-7-{(1R,2R,3R,5R)-5-chloro-2-[(1E,4S)-4-(1-ethylcyclobutyl)-4-hydroxy-1-buten-1-yl]-3-hydroxycyclopentyl}-5-heptenoyl]oxy}ethyl 3-(pentadecyloxy)benzoate]
effect on circulatory system [1]: hardly affects on circulatory system
